This is an account of results in ChEMBL document CHEMBL2157915, “Identification of a Natural Product Antagonist against the Botulinum Neurotoxin Light Chain Protease” (ACS Med Chem Lett, 2010).

The term inhibition denotes the relative decrease from the control value, in per cent. For orientation: Ki means a dissociation constant, usually derived from enzyme kinetics or from competition with a known ligand. In general, IC50 refers to the point on the concentration scale where inhibition reaches its midpoint. Higher therefore signals a need for much substance. Usually EC50 stands for the midpoint of the concentration-response curve.

Assay [1] has as its target Botulinum neurotoxin type A (Clostridium botulinum) (UniProt P0DPI0). The following applies: 5 uM.
Assay [2] shares this target. The following applies: 90 uM.
For assay [3] the target is unchanged. The following applies: 150 uM.
Assay [4] shares this target.
Assay [5] deals with T1, Botulinum neurotoxin type A (Clostridium botulinum, UniProt P0DPI0).
Assay [6] deals with T1, Botulinum neurotoxin type A. This is another data set of the same source.
Assay [7] has the same target. This is another data set of the same source.
The target in assay [8] is Botulinum neurotoxin type A (Clostridium botulinum) (UniProt P0DPI0). The settings on record: 500 uM.
Assay [9] addresses T1, Botulinum neurotoxin type A. This is another data set of the same source.

Each structure is given as a SMILES string. The source made the active and inactive calls. The rule behind the calls is not given here. A value given as a limit tells only on which side of the number the result lay.

T1 sequence (P0DPI0 2-448 limits assumed): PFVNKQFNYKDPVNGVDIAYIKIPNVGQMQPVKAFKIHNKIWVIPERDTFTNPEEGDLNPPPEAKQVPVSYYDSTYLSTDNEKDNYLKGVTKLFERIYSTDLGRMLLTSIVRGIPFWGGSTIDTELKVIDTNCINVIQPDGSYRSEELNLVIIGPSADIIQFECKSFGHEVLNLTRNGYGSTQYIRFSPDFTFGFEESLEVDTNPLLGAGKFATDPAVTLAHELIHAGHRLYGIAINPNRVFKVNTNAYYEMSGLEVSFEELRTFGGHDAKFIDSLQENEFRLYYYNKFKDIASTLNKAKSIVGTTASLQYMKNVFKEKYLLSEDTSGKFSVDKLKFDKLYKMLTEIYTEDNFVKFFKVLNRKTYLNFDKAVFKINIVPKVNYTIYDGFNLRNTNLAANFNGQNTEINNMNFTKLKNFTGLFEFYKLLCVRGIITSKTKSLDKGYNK
Chain of Botulinum neurotoxin type A (Clostridium botulinum) (P0DPI0 2-448 limits assumed): as above

In the case of `COC(=O)c1ccc(O)c2nc3c(C=O)c(O)cc(O)c3nc12` [LOMOFUNGIN], the inhibition entry in assay [1] was “Active”. Moreover, the inhibition in assay [2] is 10%; in [3] it was above 70%. The Ratio IC50 in assay [4] was determined as 20. The affinity in assay [5], expressed as Ki, was 6.7 µM. This compound displayed an IC50 in assay [6] of at least 50 µM. The same compound yielded an EC50 in assay [7] of 131 µM.

On to `Oc1cccc2cccnc12` [OXYQUINOLINE], for which the inhibition entry in assay [8] was “inactive”. In addition, in [9], the IC50 entry is “Not Active”.
